Legend:
Assay in all cases: NCI one-dose SRB growth assay
Assay type in all cases: cell-based
[1] = test system: MALME-3M; details: Homo sapiens; MALME-3M (Melanoma), 10^-5 M, 48 h; read-out: % Growth Inhibition (GI %)
How it was run: (§1)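 Tumor cell cultures were treated with the compound at 10^-5M and kept for 48 h before sulforhodamine B endpoint measurement. Data represent growth of treated cells as a percentage of untreated controls.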

[2] = test system: K-562; details: Homo sapiens, K562; K-562 (Leukemia), 10^-5 M, 48 h; read-out: % Growth Inhibition (GI %)
How it was run: as §1

[3] = test system: OVCAR-3; details: Homo sapiens; OVCAR-3 (Ovarian Cancer), 10^-5 M, 48 h; read-out: % Growth Inhibition (GI %)
How it was run: as §1

[4] = test system: SR; details: Homo sapiens; SR (Leukemia), 10^-5 M, 48 h; read-out: % Growth Inhibition (GI %)
How it was run: as §1

[5] = test system: SNB-75; details: Homo sapiens; SNB-75 (CNS Cancer), 10^-5 M, 48 h; read-out: % Growth Inhibition (GI %)
How it was run: as §1

[6] = test system: CCRF-CEM; details: Homo sapiens; CCRF-CEM (Leukemia), 10^-5 M, 48 h; read-out: % Growth Inhibition (GI %)
[7] = test system: SK-MEL-28; details: Homo sapiens; SK-MEL-28 (Melanoma), 10^-5 M, 48 h; read-out: % Growth Inhibition (GI %)
How it was run: as §1

[8] = test system: LOX IMVI; details: Homo sapiens; LOX IMVI (Melanoma), 10^-5 M, 48 h; read-out: % Growth Inhibition (GI %)
How it was run: as §1

[9] = test system: NCI-H522; details: Homo sapiens; NCI-H522 (Non-Small Cell Lung Cancer), 10^-5 M, 48 h; read-out: % Growth Inhibition (GI %)
How it was run: as §1

[10] = test system: HCT-116; details: Homo sapiens; HCT-116 (Colon Cancer), 10^-5 M, 48 h; read-out: % Growth Inhibition (GI %)
How it was run: as §1

[11] = test system: M14; details: Homo sapiens; M14 (Melanoma), 10^-5 M, 48 h; read-out: % Growth Inhibition (GI %)
How it was run: as §1

[12] = test system: IGROV1; details: Homo sapiens, IGROV-1; IGROV1 (Ovarian Cancer), 10^-5 M, 48 h; read-out: % Growth Inhibition (GI %)
[13] = test system: SW-620; details: Homo sapiens; SW-620 (Colon Cancer), 10^-5 M, 48 h; read-out: % Growth Inhibition (GI %)
[14] = test system: SK-OV-3; details: Homo sapiens; SK-OV-3 (Ovarian Cancer), 10^-5 M, 48 h; read-out: % Growth Inhibition (GI %)
How it was run: as §1

[15] = test system: UO-31; details: Homo sapiens; UO-31 (Renal Cancer), 10^-5 M, 48 h; read-out: % Growth Inhibition (GI %)
How it was run: as §1

[16] = test system: MOLT-4; details: Homo sapiens; MOLT-4 (Leukemia), 10^-5 M, 48 h; read-out: % Growth Inhibition (GI %)
How it was run: as §1

[17] = test system: UACC-62; details: Homo sapiens; UACC-62 (Melanoma), 10^-5 M, 48 h; read-out: % Growth Inhibition (GI %)
How it was run: as §1

[18] = test system: OVCAR-5; details: Homo sapiens; OVCAR-5 (Ovarian Cancer), 10^-5 M, 48 h; read-out: % Growth Inhibition (GI %)
How it was run: as §1

[19] = test system: A549/ATCC; details: Homo sapiens; A549/ATCC (Non-Small Cell Lung Cancer), 10^-5 M, 48 h; read-out: % Growth Inhibition (GI %)
How it was run: as §1

[20] = test system: BT-549; details: Homo sapiens; BT-549 (Breast Cancer), 10^-5 M, 48 h; read-out: % Growth Inhibition (GI %)
How it was run: as §1

[21] = test system: HCT-15; details: Homo sapiens; HCT-15 (Colon Cancer), 10^-5 M, 48 h; read-out: % Growth Inhibition (GI %)
How it was run: as §1

[22] = test system: SF-268; details: Homo sapiens; SF-268 (CNS Cancer), 10^-5 M, 48 h; read-out: % Growth Inhibition (GI %)
[23] = test system: MDA-MB-231/ATCC; details: Homo sapiens; MDA-MB- 231/ATCC (Breast Cancer), 10^-5 M, 48 h; read-out: % Growth Inhibition (GI %)
How it was run: as §1

[24] = test system: HCC-2998; details: Homo sapiens; HCC-2998 (Colon Cancer), 10^-5 M, 48 h; read-out: % Growth Inhibition (GI %)
How it was run: as §1

[25] = test system: NCI-H226; details: Homo sapiens; NCI-H226 (Non-Small Cell Lung Cancer), 10^-5 M, 48 h; read-out: % Growth Inhibition (GI %)
How it was run: as §1

[26] = test system: TK-10; details: Homo sapiens; TK-10 (Renal Cancer), 10^-5 M, 48 h; read-out: % Growth Inhibition (GI %)

Compound | inhibition at 10 µM [1] | inhibition at 10 µM [2] | inhibition at 10 µM [3] | inhibition at 10 µM [4] | inhibition at 10 µM [5] | inhibition at 10 µM [6] | inhibition at 10 µM [7] | inhibition at 10 µM [8] | inhibition at 10 µM [9] | inhibition at 10 µM [10] | inhibition at 10 µM [11] | inhibition at 10 µM [12] | inhibition at 10 µM [13] | inhibition at 10 µM [14] | inhibition at 10 µM [15] | inhibition at 10 µM [16] | inhibition at 10 µM [17] | inhibition at 10 µM [18] | inhibition at 10 µM [19] | inhibition at 10 µM [20] | further results
O=C(O)c1cn(C2CC2)c2cc(N3CCN(S(=O)(=O)c4ccc(Cl)c(Cl)c4)CC3)c(F)cc2c1=O [Compound 3b] | > 100% | 83.1% | 90.1% | > 100% | 86.8% | 83.1% | 51.5% | 98.8% | > 100% | 96% | 81.5% | 70.7% | 79.3% | 73.2% | 90% | 96.6% | 70.4% | 87.5% | 94% | > 100% | inhibition at 10 µM [21]: 93.8%; inhibition at 10 µM [22]: 80.4%; inhibition at 10 µM [23]: 63.4%; inhibition at 10 µM [24]: 75.2%; inhibition at 10 µM [25]: 58.6%; inhibition at 10 µM [26]: 66.8%
CCn1cc(C(=O)O)c(=O)c2cc(F)c(N3CCN(S(=O)(=O)c4c(C)cc(C)cc4C)CC3)cc21 [Compound 6a] | < 10% | 20.1% | 10.8% | 35.5% | 29.2% | 18.2% | < 10% | 38.7% | 13.5% | 20.9% | 24.4% | 20.6% | < 10% | < 10% | 66.9% | 24.1% | 24.1% | 11.4% | 22% | 26.3% | inhibition at 10 µM [21]: 28.5%; inhibition at 10 µM [22]: 16.3%; inhibition at 10 µM [23]: 16.3%; inhibition at 10 µM [24]: 17.5%; inhibition at 10 µM [25]: 23.1%; inhibition at 10 µM [26]: < 10%
Cc1cc(C)c(S(=O)(=O)N2CCN(c3cc4c(cc3F)c(=O)c(C(=O)O)cn4C3CC3)CC2)c(C)c1 [Compound 6b] | 40.3% | 36.5% | < 10% | 60.9% | 63.4% | 62.7% | 30.9% | 70.4% | 32.7% | 67.8% | 36.5% | 64.3% | 20.2% | 18.4% | 83.9% | 39% | 23.4% | 57.8% | 79.7% | 22.7% | inhibition at 10 µM [21]: 44.9%; inhibition at 10 µM [22]: 43.3%; inhibition at 10 µM [23]: 15.4%; inhibition at 10 µM [24]: 52.3%; inhibition at 10 µM [25]: 28.2%; inhibition at 10 µM [26]: 13.5%
CCn1cc(C(=O)O)c(=O)c2cc(F)c(N3CCN(S(=O)(=O)c4cccc5ccccc45)CC3)cc21 [Compound 7a] | > 100% | 84.6% | > 100% | 97.8% | 85.9% | 87.9% | 40.8% | > 100% | > 100% | 94.5% | 82.1% | 86.3% | 77.2% | 84.4% | > 100% | 91.6% | 68.8% | 84.5% | 96.2% | > 100% | inhibition at 10 µM [21]: 88.9%; inhibition at 10 µM [22]: 83.6%; inhibition at 10 µM [23]: 76.1%; inhibition at 10 µM [24]: 68.4%; inhibition at 10 µM [25]: 78.1%; inhibition at 10 µM [26]: 74%

— patent publication EP2987533B1, “7-substituted piperazin-1-yl fluoroquinolone compounds, their use in the treatment of cancer, pharmaceutical compositions and a method for preparation” (priority 2014, dated 2016)
